Data published in ChEMBL document CHEMBL3044826, “Design, synthesis and biological evaluation of some novel substituted 2-mercapto-3-phenethylquinazolines as antitumor agents” (2013).

Legend:
Assay type in all cases: functional
NCI-H322M = assay: Cytotoxicity against Homo sapiens (human) NCI-H322M cells assessed as growth inhibition at 10 uM after 48 hr by coulter counter analysis; settings: read-out: GI
MDA-MB-435 = assay: Cytotoxicity against Homo sapiens (human) MDA-MB-435 cells assessed as growth inhibition at 10 uM after 48 hr by coulter counter analysis; settings: MDA-MB-435, 48 h, read-out: GI
UACC-257 = assay: Cytotoxicity against Homo sapiens (human) UACC257 cells assessed as growth inhibition at 10 uM after 48 hr by coulter counter analysis; settings: UACC-257, 48 h, read-out: GI
786-0 = assay: Cytotoxicity against Homo sapiens (human) 786-0 cells assessed as growth inhibition at 10 uM after 48 hr by coulter counter analysis; settings: 786-0, 48 h, read-out: GI
HCT-15 = assay: Cytotoxicity against Homo sapiens (human) HCT15 cells assessed as growth inhibition at 10 uM after 48 hr by coulter counter analysis; settings: HCT-15, 48 h, read-out: GI
NCI-H522 = assay: Cytotoxicity against Homo sapiens (human) NCI-H522 cells assessed as growth inhibition at 10 uM after 48 hr by coulter counter analysis; settings: NCI-H522, 48 h, read-out: GI
ACHN = assay: Cytotoxicity against Homo sapiens (human) ACHN cells assessed as growth inhibition at 10 uM after 48 hr by coulter counter analysis; settings: read-out: GI
MDA-MB-231 = assay: Cytotoxicity against Homo sapiens (human) MDA-MB-231 cells assessed as growth inhibition at 10 uM after 48 hr by coulter counter analysis; settings: MDA-MB-231, 48 h, read-out: GI
MCF7 = assay: Cytotoxicity against Homo sapiens (human) MCF7 cells assessed as growth inhibition at 10 uM after 48 hr by coulter counter analysis; settings: MCF7, 48 h, read-out: GI
IGROV-1 = assay: Cytotoxicity against Homo sapiens (human) IGROV1 cells assessed as growth inhibition at 10 uM after 48 hr by coulter counter analysis; settings: IGROV-1, 48 h, read-out: GI
U-251 = assay: Cytotoxicity against Homo sapiens (human) U251 cells assessed as growth inhibition at 10 uM after 48 hr by coulter counter analysis; settings: U-251, 48 h, read-out: GI
T47D = assay: Cytotoxicity against Homo sapiens (human) T47D cells assessed as growth inhibition at 10 uM after 48 hr by coulter counter analysis; settings: read-out: GI
NCI-H226 = assay: Cytotoxicity against Homo sapiens (human) NCI-H226 cells assessed as growth inhibition at 10 uM after 48 hr by coulter counter analysis; settings: NCI-H226, 48 h, read-out: GI
RXF 393 = assay: Cytotoxicity against Homo sapiens (human) RXF393 cells assessed as growth inhibition at 10 uM after 48 hr by coulter counter analysis; settings: RXF 393, 48 h, read-out: GI
OVCAR-5 = assay: Cytotoxicity against Homo sapiens (human) OVCAR5 cells assessed as growth inhibition at 10 uM after 48 hr by coulter counter analysis; settings: OVCAR-5, 48 h, read-out: GI
Hs-578T = assay: Cytotoxicity against Homo sapiens (human) Hs578T cells assessed as growth inhibition at 10 uM after 48 hr by coulter counter analysis; settings: read-out: GI
SK-MEL-28 = assay: Cytotoxicity against Homo sapiens (human) SK-MEL-28 cells assessed as growth inhibition at 10 uM after 48 hr by coulter counter analysis; settings: SK-MEL-28, 48 h, read-out: GI
NCI-H460 = assay: Cytotoxicity against Homo sapiens (human) NCI-H460 cells assessed as growth inhibition at 10 uM after 48 hr by coulter counter analysis; settings: NCI-H460, 48 h, read-out: GI
CCRF-CEM = assay: Cytotoxicity against Homo sapiens (human) CCRF-CEM cells assessed as growth inhibition at 10 uM after 48 hr by coulter counter analysis; settings: read-out: GI

Compound | inhibition of growth at 10 µM (NCI-H322M) [%] | inhibition of growth at 10 µM (MDA-MB-435) [%] | inhibition of growth at 10 µM (UACC-257) [%] | inhibition of growth at 10 µM (786-0) [%] | inhibition of growth at 10 µM (HCT-15) [%] | inhibition of growth at 10 µM (NCI-H522) [%] | inhibition of growth at 10 µM (ACHN) [%] | inhibition of growth at 10 µM (MDA-MB-231) [%] | inhibition of growth at 10 µM (MCF7) [%] | inhibition of growth at 10 µM (IGROV-1) [%] | inhibition of growth at 10 µM (U-251) [%] | inhibition of growth at 10 µM (T47D) [%] | inhibition of growth at 10 µM (NCI-H226) [%] | inhibition of growth at 10 µM (RXF 393) [%] | inhibition of growth at 10 µM (OVCAR-5) [%] | inhibition of growth at 10 µM (Hs-578T) [%] | inhibition of growth at 10 µM (SK-MEL-28) [%] | inhibition of growth at 10 µM (NCI-H460) [%] | inhibition of growth at 10 µM (CCRF-CEM) [%]
O=C(CSc1nc2ccccc2c(=O)n1CCc1ccccc1)c1ccc(F)cc1 | 13 | < 10 | < 10 | 32 | < 10 | < 10 | 24 | 23 | < 10 | 21 | 19 | 18 | < 10 | < 10 | < 10 | 25 | < 10 | < 10 | –
O=c1c2ccccc2nc(SCCN2CCOCC2)n1CCc1ccccc1 | < 10 | < 10 | < 10 | < 10 | < 10 | < 10 | < 10 | < 10 | < 10 | < 10 | < 10 | – | < 10 | < 10 | < 10 | < 10 | < 10 | < 10 | –
O=c1c2ccccc2nc(SCc2nnc(S)n2-c2ccccc2)n1CCc1ccccc1 | < 10 | < 10 | – | < 10 | 25 | < 10 | < 10 | 20 | 28 | 16 | 11 | 38 | < 10 | < 10 | < 10 | < 10 | < 10 | < 10 | 28
O=C1c2ccccc2C(=O)N1CCCSc1nc2ccccc2c(=O)n1CCc1ccccc1 | < 10 | < 10 | < 10 | 13 | 31 | 13 | < 10 | 14 | < 10 | < 10 | 15 | 30 | < 10 | < 10 | < 10 | – | < 10 | < 10 | –
COc1ccc(-n2c(S)nnc2CSc2nc3ccccc3c(=O)n2CCc2ccccc2)cc1 | < 10 | < 10 | < 10 | < 10 | 25 | < 10 | < 10 | 20 | 28 | 16 | 11 | < 10 | < 10 | < 10 | < 10 | < 10 | < 10 | < 10 | 13
